Data set [1] concerns CHO-AA8/Q68-Q68 cells. In words: Propidium iodide exclusion assay (viability, cell number) following the FRET assay. To be noted: after 48 h; for Viability ↓ (concentration) / Viability (effect in words): propidium iodide exclusion. The protocol:
CHO-AA8/Q68-Q68, CHO-AA8/Q17-Q17 and CHO-AA8 cells were seeded in 96 well plates. After attachment of the cells, the medium was exchanged for Ham's F 12 medium containing 10% doxicycline free FBS and 2% DMSO supplemented with compounds. After 48 h the fluorescence intensities of cells were measured using a fluorescence plate reader (Fluoroscan Ascent, Thermo Scietific) and filtersets for CFP (ex 444 nm, em 485 nm), YFP(ex 485 nm, em 538 nm) and FRET (ex 444 nm, em 538 nm). After correction of background fluorescence (subtraction of CHO-AA8 cell fluorescence intensities) the FRET signal was determined using the method: FA=(FRET-a*YFP)/CFP with a=0.11 (Zal u. Gascoigne 2004, Zal et al. 2002). In following, the viability of cells was measured using a propidium iodide exclusion assay (Sattler et al. 1997). PI was added to the cells at final concentration of 0.15 mg/ml. After 15 minutes the PI fluorescence intensity was measured (ex 530 nm, em 620 nm). The cells were then lysed with 0.5% Triton X-100 (TX100) and the PI fluorescence intensity was measured again. Viability of cells was calculated as viability=1−(PIbefore TX100/PIafter TX100).
(§1) The FRET-measurement was performed 48 h later.

The target of data set [2] is T1, mutant huntingtin aggregates (HDex1Q68 fused to ECFP/EYFP) (Homo sapiens, UniProt P42858, INS38QQQQQQQQQQQQQQQQQQQQQQQQQQQQQQQQQQQQQQQQQQQQQQQ). In words: Cellular FRET aggregation assay in stable Tet-off CHO-AA8/Q68-Q68 cells. The data set is classed as cell-based. The following applies: for apparent inhibitory effects due to toxic effects (concentration): FRET decrease attributed to toxicity. The protocol: To determine the potential of possibly inhibiting substances the inventors performed dose response assays at concentrations ranging from 1, to 100 μM.
Screening was performed in 96-well plates (greiner bio-one) containing 1×10^4 cells/well of the stably inducible tet off cell lines htt-mut (six-fold) and CHO-AA8 line (three fold) for background control. Simultaneously, each compound was checked for its potential autofluorescence.
Two stable inducible CHO Tet off cell lines were constructed expressing simultaneously wildtype (CHO-AA8/Q17-Q17) or mutant (CHO-AA8/Q68-Q68) huntingtin fragments fused to ECFP or EYFP (FIG. 1B) after withdrawal of doxicycline (dox). Basal and induced expression levels of huntingtin fusion proteins were examined by Western blot analysis at different time intervals (4, 24, 48, and 72 hours). […] For the screening approach stable inducible huntingtin expressing cell lines were seeded in 96-well plates and the fluorescence intensities were measured with a fluorescence plate reader.
The test compounds were mixed in a fresh doxicycline-free medium with 2% DMSO and added to the Tet off cell lines two to three hours after seeding and attachment of the cells.
as §1
Subsequently, a second screening round was performed at concentration range 1, 3, and 10 μM, respectively.

Data set [3] has as its target T2, GST-tagged mutant htt-exon-1 with 51 polyglutamines (GST-HDexQ51) (Homo sapiens, UniProt P42858, INS38QQQQQQQQQQQQQQQQQQQQQQQQQQQQQQ).
T2 construct: GST-tagged mutant htt-exon-1 with 51 polyglutamines (GST-HDexQ51); GST (N, cleaved yes)
In words: Cell free filter retardation assay. The class given is biochemical. To be noted: tested 1-200 μM. The protocol: To determine if the cellular environment is a prerequisite for the inhibitory effect of the isolated natural compounds or if the compounds directly interfere with the aggregation process, the inventors performed a cell free filter retardation assay (Scherzinger et al., 1997).
Briefly, GST-tagged mutant htt-exon-1 with 51 polyglutamines (GST-HDexQ51) is incubated with the compounds and factor Xa to remove the GST tag for proper aggregation (16 h, 23° C.). The aggregated peptides are denaturized by boiling in SDS buffer (10 min, 99° C.) and filtered though a cellulose acetate membrane. The insoluble aggregates are retained at the membrane and detected with an anti-huntingtin antibody.
The isolated natural compounds, PGL-135 and congo red were tested in a concentration range of 1-200 μM. […] (Data not shown). Concentration of less than 50 μM congo red produced an enhancement of the aggregation process.

In data set [4] the test system is mutant huntingtin aggregates. In words: Filter retardation assay on lysates of treated cells (immunodetection). The data set is classed as cell-based. To be noted: increasing concentrations. The protocol: (C) Immunodetection of mutant huntingtin aggregates upon PGL-135 treatment of cells using a filter retardation assay.
The filter retardation assay was accomplished as described (Scherzinger et al., 1999). Cells were lysed (100 mM NaCl, 5 mM MgCl2, 0.5% NP-40, 1 mM EDTA, 50 mM Tris-HCl, protease inhibitors, 25 U/mL benzonase, pH 8.8), denatured 5 min at 95° C. with 2% SDS/50 mM DTT and cell lysates equal 2 μg protein were filtered through a 0.2 μm cellulose acetate membrane (Schleicher & Schuell) using a dot blot unit. The immunodetection was performed using the same antibody detection system as described above. Quantitative determination of the relative aggregate amount was evaluated with the Lumi Imager F1 System and Lumi Analyst 3.0 (Boehringer Mannheim, Germany).
The coherence between decreasing FRET values and less polyglutamine aggregates in PGL-135 treated cells was further validated by fluorescence microscopy imaging (data not shown) and a filter retardation assay (Heiser et al., 2000) (FIG. 2C).

The target of data set [5] is T1, mutant huntingtin aggregates (HDex1Q68 fused to ECFP/EYFP). In words: Cellular FRET aggregation assay in stable Tet-off CHO-AA8/Q68-Q68 cells. The following applies: half-maximal inhibition of FRET signal, dose response 0.7-50 μM. The class given is cell-based.

pEC50: −log10 of the molar value. Entries after “also recorded” stand apart in the source; their conditions may differ.

T1 sequence (P42858 1-88, stated change not applied): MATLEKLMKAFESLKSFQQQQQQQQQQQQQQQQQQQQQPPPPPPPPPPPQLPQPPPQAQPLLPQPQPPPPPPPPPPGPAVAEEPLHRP
T2 sequence (P42858 with tags, fused parts or gaps with the stated changes): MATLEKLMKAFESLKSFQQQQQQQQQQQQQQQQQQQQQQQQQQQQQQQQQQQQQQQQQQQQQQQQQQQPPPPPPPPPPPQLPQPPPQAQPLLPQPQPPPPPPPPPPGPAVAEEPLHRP

On to `C=CCNC1=C2C[C@@H](C)C[C@H](OC)[C@H](O)[C@@H](C)/C=C(\C)[C@H](OC(N)=O)[C@@H](OC)/C=C\C=C(/C)C(=O)NC(=CC1=O)C2=O` [17-AAG], for which, in data set [1], the “Cell number ↓ (concentration)” value is recorded as “↓ ≧0.3 μM” and the “Viability ↓ (concentration)” value is on record as “↓ ≧0.3 μM”. In data set [2] (48 h, 2% DMSO), the “FRET-signal ↓ (concentration from which aggregation is reduced)” value was “↓ ≧0.3 μM”. The “apparent inhibitory effects due to toxic effects (concentration)” value in data set [2] is above 0.7 µM.
Consider `CN(CC(=O)O)C(=N)N` [Creatine], for which, in data set [1], the “Cell number (effect in words)” value was “no effect” and the “Viability (effect in words)” value was “no effect”. Moreover, the “FRET-signal (effect in words)” value in data set [2] (48 h, 2% DMSO) was “no effect”. The “FRET-signal (effect in words)” value in data set [2] (48 h, 2% DMSO, listed as creatin) is given as “no effects”.
Turning to `NCCSSCCN` [Cystamine], in data set [1], the “Cell number (effect in words)” value is reported as “no effect” and the “Viability (effect in words)” value is reported as “no effect”. Moreover, the “FRET-signal (effect in words)” value in data set [2] (48 h, 2% DMSO) is recorded as “no effect”. Further, the “FRET-signal (effect in words)” value in data set [2] (48 h, 2% DMSO, listed as cystamine dihydrochloride) was “no effects”.
Consider `O=C(O)Cc1ccccc1Nc1c(Cl)cccc1Cl` [Diclofenac], for which, in data set [1], the “Cell number ↓ (concentration)” value is reported as “↓ ≧250 nM” and the “Viability (effect in words)” value is recorded as “no effect”. In data set [2] (48 h, 2% DMSO), the “FRET-signal (effect in words)” value is “no effect”. The “FRET-signal (effect in words)” value in data set [2] (48 h, 2% DMSO, listed as diclofenac) is “no effects”.
With `COc1ccc2c(c1)c(CC(=O)O)c(C)n2C(=O)c1ccc(Cl)cc1` [Indomethacin], in data set [1], the “Cell number ↓ (concentration)” value is recorded as “↓ ≧1.25 μM” and the “Viability ↓ (concentration)” value was “↓ 10 μM”. Besides, the “FRET-signal ↓ (concentration from which aggregation is reduced)” value in data set [2] (48 h, 2% DMSO) is recorded as “↓ ≧1.25 μM”.
Regarding `CC(Cc1ccc(O)c(O)c1)C(C)Cc1ccc(O)c(O)c1` (stereo not shown) [NDGA], in data set [1], the “Cell number ↓ (concentration)” value is “↓ 500 nM” and the “Viability (effect in words)” value is “no effect”. In data set [2] (48 h, 2% DMSO), the “FRET-signal (effect in words)” value is “no effect”.
Consider `Cc1cc(O)c(C)c2sc(N)nc12` [PGL-135], for which the “inhibition of aggregate formation (in words)” value in data set [3] was “Only congo red reliably inhibited the formation of aggregates”. Further, the “mutant huntingtin aggregates in filter retardation assay” value in data set [4] is “significant decrease”. Also, in data set [1], the “Cell number (effect in words)” value was “no effect” and the “Viability (effect in words)” value is “not affected; also recorded: without affecting the cell viability; also recorded: no effect”. Further, the “FRET-signal (effect in words)” value in data set [2] (48 h, 2% DMSO) was “decrease”.
`Nc1nc2ccc(OC(F)(F)F)cc2s1` [Riluzole]: in data set [1], the “Cell number (effect in words)” value is on record as “no effect” and the “Viability (effect in words)” value was “no effect”.
`C=C1[C@@H]2CC[C@@]3(C)[C@H](c4ccoc4)OC(=O)C[C@]13O[C@H]1CC(=O)C(C)(C)[C@H](CC(=O)OC)[C@]12C` [S2, angolensic acid methylester]: the negative logarithm of the EC50 (pEC50) (in general, −log10 of the EC50, conventionally taken in molar units) in data set [5] was 5.52.
As for `O=C(CCCCCN1C(=O)c2cccc3cccc(c23)C1=O)NO` [Scriptaid], in data set [1], the “Cell number (effect in words)” value is “decreased”, the “Cell number ↓ (concentration)” value is “↓ ≧25 μM” and the “Viability ↓ (concentration)” value is reported as “↓ ≧25 μM”. For the same compound, the “FRET-signal ↑ (concentration from which aggregation is increased)” value in data set [2] (48 h, 2% DMSO) is reported as “↑ ≧25 μM”.
Take `OC[C@H]1O[C@H](O[C@H]2O[C@H](CO)[C@@H](O)[C@H](O)[C@H]2O)[C@H](O)[C@@H](O)[C@@H]1O` [Trehalose]: in data set [1], the “Cell number (effect in words)” value is reported as “no effect” and the “Viability (effect in words)” value is reported as “no effect”. Moreover, the “FRET-signal (effect in words)” value in data set [2] (48 h, 2% DMSO) is listed as “no effect”. For the same compound, the “FRET-signal (effect in words)” value in data set [2] (48 h, 2% DMSO, listed as threhalose) is on record as “no effects”.
For the compound `C[C@@H](N)[C@H]1CC[C@H](C(=O)Nc2ccncc2)CC1` [Y-27632], in data set [1], the “Cell number (effect in words)” value is on record as “no effect” and the “Viability (effect in words)” value is “no effect”. Besides, in data set [2] (48 h, 2% DMSO), the “FRET-signal (effect in words)” value is “no effect”. Besides, the “apparent inhibitory effects due to toxic effects (concentration)” value in data set [2] was above 12.5 µM.
In the case of `O=C(O)c1cc(/N=N/c2ccc(-c3ccc(/N=N/c4ccc(O)c(C(=O)O)c4)cc3)cc2)ccc1O` [chrysamine G], in data set [1], the “Cell number (effect in words)” value was “no effect” and the “Viability (effect in words)” value is on record as “no effect”. Also, the “FRET-signal (effect in words)” value in data set [2] (48 h, 2% DMSO) was “no effect”. For the same compound, the “FRET-signal (effect in words)” value in data set [2] (48 h, 2% DMSO, listed as Chrysamine G) is reported as “no effects”.
Take `COC1=C(OC)C(=O)C(C/C=C(\C)CC/C=C(\C)CC/C=C(\C)CC/C=C(\C)CC/C=C(\C)CC/C=C(\C)CC/C=C(\C)CC/C=C(\C)CC/C=C(\C)CCC=C(C)C)=C(C)C1=O` [coenzyme Q10]: in data set [1], the “Cell number (effect in words)” value is “no effect” and the “Viability (effect in words)” value is given as “no effect”. Further, the “FRET-signal (effect in words)” value in data set [2] (48 h, 2% DMSO) is given as “no effect”.
For the compound `Nc1c(/N=N/c2ccc(-c3ccc(/N=N/c4cc(S(=O)(=O)O)c5ccccc5c4N)cc3)cc2)cc(S(=O)(=O)O)c2ccccc12` [congo red], in data set [3] (16 h, 23° C.), the “enhancement of the aggregation process (concentration)” value was “less than 50 μM” and the “inhibited the formation of aggregates (concentration)” value was above 50 µM. In addition, in data set [1], the “Cell number ↓ (concentration)” value was “↓ ≧125 μM” and the “Viability (effect in words)” value is “no effect”. The “FRET-signal ↓ (concentration from which aggregation is reduced)” value in data set [2] (48 h, 2% DMSO) is “↓ ≧30 μM”. In data set [2] (48 h, 2% DMSO, listed as Congo red), the “FRET-signal ↓ (concentration from which aggregation is reduced)” value is above 30 µM.
As to `COC1=C2C[C@@H](C)C[C@H](OC)[C@H](O)[C@@H](C)/C=C(\C)[C@H](OC(N)=O)[C@@H](OC)/C=C\C=C(/C)C(=O)NC(=CC1=O)C2=O` [geldanamycin], in data set [1], the “Cell number (effect in words)” value was “no effect” and the “Viability (effect in words)” value is reported as “no effect”.
Consider `O=C([O-])c1ccccc1O.[Na+]` [sodiumsalicylat], for which the “Viability (effect in words)” value in data set [1] is listed as “no effect”. Also, the “FRET-signal (effect in words)” value is recorded as “no effect” in data set [2] (48 h, 2% DMSO) and “no effects” in data set [2] (48 h, 2% DMSO, listed as sodiumsalyicylate).
Turning to half-Chrysamine G, in data set [1], the “Cell number (effect in words)” value is given as “no effect” and the “Viability (effect in words)” value was “no effect”. Moreover, in data set [2] (48 h, 2% DMSO), the “FRET-signal (effect in words)” value is recorded as “no effect” and the “FRET-signal ↓ (concentration from which aggregation is reduced)” value was above 2.5 µM.

Values taken from patent US20100298280A1, “Compounds for the Modulation of Huntingtin Aggregation, Methods and Means for Identifying Such Compounds” (priority 2007, published 2010).
